From US8470886B2, “Topical ibuprofen formulations” (NUVO Research Inc., priority 2009, dated 2013)
Counter-ions that a name gives are not always drawn.

Tests used:
[1] = cited from earlier work
[2] = Skin permeation of ibuprofen through porcine skin, Franz diffusion cells (finite dosing); type: in vitro ADME; details: bar graphs FIG. 1-13
Experimental: “Enhancement ratio” (“ER”) as used herein is the ratio of a test result (e.g., ug/cm^2 accumulated dose of product) from a formulation comprising ibuprofen to the corresponding test result from a control composition comprising ibuprofen at the same concentration in the formulation.
“Ratio”, as it pertains to comparative flux values described herein, are calculated based on the cumulative amount of active (e.g. ibuprofen) delivered through the skin over a period of 4-60 hrs, preferably 24 hrs.
The permeation of ibuprofen through porcine skin from each of the present formulations was measured using Franz diffusion cells (“FDC”s). Porcine skin pieces are obtained from Lampire Biological Laboratories, Inc., Pipersville, Pa. Porcine skins were collected immediately following animal sacrifice, and the hairs were trimmed with clippers. Larger pieces of excess fat were removed with a filet knife. The skin was then trimmed to a set thickness of some 2 mm, cut into individual pieces, wrapped in aluminum foil, frozen, shipped, and stored at −78° C.
Prior to use, the skin pieces were allowed to thaw, in air, to room temperature. […]
Samples were drawn from the receptor wells at various times, as provided in the examples that follow. […] The concentrations of ibuprofen in the samples were measured using HPLC analysis using a C18 column and acetonitrile and water as the mobile phase. […]

[3] = pH of the formulation; type: physicochemical; details: Table 20; single ingredient in water at its Ib949 wt %

For CC(C)Cc1ccc(C(C)C(=O)O)cc1 (racemic) [Ibuprofen, 2-(4-isobutylphenyl)propanoic acid], the “Solubility in polar organic solvents” value ([1]; ethanol and acetone) is listed as “readily soluble” and the Solubility in water ([1]; water) is listed as less than 100 µg/mL.
For CC(C)Cc1ccc([C@H](C)C(=O)O)cc1 [(S) form, (S+)-ibuprofen], the “Flux / permeation of ibuprofen, result in words” value [2] was “no significant difference in flux”.
In the case of CCO [Ethanol], the pH-water and ingredients [3] is reported as 7.31.
Work on CC(O)C(=O)O (centres unmarked) [Lactic Acid] yielded a pH-water and ingredients [3] of 2.4.
With COC(=O)c1ccc(O)cc1 [MP] the pH-water and ingredients [3] was 5.72.
CCCCCCCCCCCCOS(=O)(=O)[O-].[Na+] [Na Lauryl Sulfate] showed a pH-water and ingredients [3] of 7.97.
For CC(O)CO (centres unmarked) [PG], the pH-water and ingredients [3] was 6.97.
CCCOC(=O)c1ccc(O)cc1 [PP] showed a pH-water and ingredients [3] of 6.13.
With CCOCCOCCO [Transcutol] the pH-water and ingredients [3] was 4.32.
Compound CCOC(=O)CC(O)(CC(=O)OCC)C(=O)OCC [Triethyl Citrate] has a pH-water and ingredients [3] of 3.72.
